Results: patent US12578343B2, “Selective ACKR3 modulators and uses thereof” (Luxembourg Institute of Health (LIH), priority 2019, dated 2026)

Assays:
[1] = biological target: ACKR3 (Homo sapiens, UniProt P25106); assay: ACKR3-mediated depletion of extracellular dynorphin A monitored by its ability to activate KOR (U87-ACKR3 cells); type: cell-based; parameters: expressed in transfected cells; for the receptor comparison in the uptake assay, transient pcDNA3.1); details: pre-treatment of ACKR3-expressing cells, saturating concentration
Sequence of ACKR3 (Homo sapiens, UniProt P25106) (P25106 whole entry, the tested form may be a part): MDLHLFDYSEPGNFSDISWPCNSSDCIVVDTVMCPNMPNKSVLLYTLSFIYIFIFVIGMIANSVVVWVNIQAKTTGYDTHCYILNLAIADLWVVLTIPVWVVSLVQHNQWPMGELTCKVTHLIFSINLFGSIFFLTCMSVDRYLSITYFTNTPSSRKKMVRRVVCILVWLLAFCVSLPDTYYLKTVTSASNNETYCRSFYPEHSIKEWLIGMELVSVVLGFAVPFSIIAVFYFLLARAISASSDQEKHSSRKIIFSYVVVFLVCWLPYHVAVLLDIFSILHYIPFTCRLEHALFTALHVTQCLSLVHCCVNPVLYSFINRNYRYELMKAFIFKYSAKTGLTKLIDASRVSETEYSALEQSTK
Experimental: (§1) In brief, 1.2×10^6 U87 cells were plated in 10 cm-culture dishes and 48 hours later co-transfected with pNBe vectors encoding GPCRs C-terminally tagged to SmBiT and human β-arrestin-1 or -2 or mini G proteins (mG, engineered GTPase domains of Gα subunits,) N-terminally fused to LgBiT. 48 hours post-transfection cells were harvested, incubated 25 minutes at 37° C. with Nano-Glo Live Cell substrate diluted 200-fold and distributed into white 96-well plates (5×10^4 cells per well). Ligand-induced, β-arrestin and mG recruitment to GPCRs was evaluated with a Mithras LB940 luminometer (Berthold Technologies) for 20 minutes. For concentration-response curves, the signal recorded with a saturating concentration of full agonist for each receptor was set as 100%.

[2] = biological target: ACKR3; assay: Binding competition | ACKR3 | IC50 (nM)
Description: Table printed on a drawing sheet, FIG. 1 (continued) H
Head of the field: Binding competition | ACKR3 | IC50 (nM)
The patent's description of the figure: FIG. 1 Opioid peptide library screening on ACKR3, hit confirmation and comparison with classical opioid receptors. (A) The ability of 58 compounds, including natural opioid peptides from the four opioid families, variants thereof and small molecule opioid receptor modulators, to induce β-arrestin-2 recruitment to ACKR3, CXCR4 and CXCR3 in U87 cells at a concentration of 5 μM. Positive control chemokines were used at a concentration of 300 nM. Results are expressed as fold change over vehicle-treated cells and presented as mean±S.D of two replicates (B-F) Comparison of potency and efficacy of ACKR3-activating peptides in inducing β-arrestin-1 recruitment to the opioid receptors MOR (B), DOR (C), KOR (D), NOP (E) and ACKR3 (F) in U87 cells. Results are expressed as percentage of indicated agonist response. […] Results from B—H are presented as mean±S.E.M (n ? 3).
Where the first naming reader finds the target: head: Binding competition | ACKR3 | IC50 (nM)

[3] = tested on: rat locus coeruleus neurons; type: cell-based
Experimental: 1.9. Ex Vivo Rat Neuron Depolarization
Adult male Wistar rats (6 to 8-week old) were housed at room temperature in groups of three or four with a 12:12 hour light-dark cycle. All animals had access to ad libitum food and water. All procedures were carried out in accordance with guidelines of the European Communities Council Directive of 24 Nov. 1986 (86609EE) and were accepted by the Ethics Committee for Animal Use of the University of Liège (protocol 2061). All efforts were made to minimize animal suffering.
1.9.2. Brain Explant Preparation and Recording Procedures
Rats were anaesthetized with chloral hydrate (400 mg/kg, i.p.) and placed under a cap with oxygenated air (95% O2, 5% CO2) two minutes prior to decapitation. After decapitation, the brain was rapidly removed and placed in ice cold (˜2° C.) oxygenated artificial cerebrospinal fluid (aCSF) of the following composition: NaCl 130 mM, KCl 3.5 mM, NaH2PO4 1.25 mM, NaHCO3 24 mM, Glucose 10 mM, CaCl2 2 mM, MgSO4 1.25 mM. A block of tissue containing the pons was placed in a vibrating blade microtome (Vibratome 1000 Plus, Sectioning System) and a slice containing the locus coeruleus (LC) immediately rostral to the fourth ventricle and the VIIth nerve, used as anatomical landmarks, was cut coronally (400 μm thick). The slice was placed on a nylon mesh in a recording chamber (volume: 0.5 ml) where it was superfused by oxygenated aCSF (34.0±0.5° C.) at a rate of 2 to 3 ml/min. The LC was recognized as a translucent region during transillumination, lateral to the fourth ventricle. All experiments were performed in oxygenated aCSF with synaptic blockers consisting of 10 μM CNQX, 10 μM SR95531, 1 μM MK801, and 1 μM CGP55845, which block AMPA/Kainate, GABAA, NMDA, and GABAB receptors, respectively. This ensured that the spontaneous firing of the neurons was only due to its endogenous pace making.
Extracellular single cell recordings of LC neurons were performed with glass microelectrodes filled with aCSF (resistance 10-20 MΩ). Signals were passed through an impedance adapter and were amplified 1000× using a home-made amplifier. […] Data were collected and analysed with the Spike 2 software (Cambridge Electronic Design). […] The duration of the extracellularly recorded action potentials was 2-3 ms. Drugs and peptides were applied for at least 10 minutes.
The mean firing rate over 1 minute was calculated during each condition. Next, the inhibition of firing by the peptides and drugs used (LIH383 and dynorphin) was quantified as the % of total inhibition. For this purpose, present inventors considered the mean firing rate during the last minute of each condition (control, LIH383 alone, LIH383 plus a given concentration of dynorphin).

[4] = biological target: T1, MOR (Homo sapiens, UniProt P35372); type: cell-based; details: concentrations as high as 3 μM
T1 construct: expressed in transfected cells; host or cells: U87 cells, transient co-transfection of pNBe vectors
T1 sequence (P35372 whole entry): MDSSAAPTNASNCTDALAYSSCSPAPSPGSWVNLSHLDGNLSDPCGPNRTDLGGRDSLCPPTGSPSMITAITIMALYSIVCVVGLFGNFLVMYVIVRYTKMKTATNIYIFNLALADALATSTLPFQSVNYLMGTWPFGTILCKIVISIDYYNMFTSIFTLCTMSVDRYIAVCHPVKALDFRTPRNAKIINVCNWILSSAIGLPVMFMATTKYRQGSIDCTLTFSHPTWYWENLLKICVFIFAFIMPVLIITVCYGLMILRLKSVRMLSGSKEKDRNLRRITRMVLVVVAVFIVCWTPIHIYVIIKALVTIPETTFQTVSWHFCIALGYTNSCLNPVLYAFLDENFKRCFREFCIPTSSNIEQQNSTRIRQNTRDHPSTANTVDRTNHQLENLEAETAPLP
Experimental: as §1

[5] = biological target: T2, mouse ACKR3 (mACKR3) (Mus musculus, UniProt P56485); assay: β-arrestin-1 recruitment to mouse ACKR3; type: cell-based
T2 construct: expressed in transfected cells; host or cells: U87 cells
T2 sequence (P56485 whole entry): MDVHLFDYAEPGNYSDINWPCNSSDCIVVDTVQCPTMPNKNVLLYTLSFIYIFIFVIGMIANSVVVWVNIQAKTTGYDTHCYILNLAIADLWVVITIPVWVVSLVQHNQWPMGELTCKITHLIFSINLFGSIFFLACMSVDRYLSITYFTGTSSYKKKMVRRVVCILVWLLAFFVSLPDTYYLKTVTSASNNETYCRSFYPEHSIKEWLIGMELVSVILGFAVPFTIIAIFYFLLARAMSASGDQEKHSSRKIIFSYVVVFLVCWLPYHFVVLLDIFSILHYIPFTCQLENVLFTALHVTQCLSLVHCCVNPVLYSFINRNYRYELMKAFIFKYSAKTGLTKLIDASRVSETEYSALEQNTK
T2 sequence (P49407 whole entry partner): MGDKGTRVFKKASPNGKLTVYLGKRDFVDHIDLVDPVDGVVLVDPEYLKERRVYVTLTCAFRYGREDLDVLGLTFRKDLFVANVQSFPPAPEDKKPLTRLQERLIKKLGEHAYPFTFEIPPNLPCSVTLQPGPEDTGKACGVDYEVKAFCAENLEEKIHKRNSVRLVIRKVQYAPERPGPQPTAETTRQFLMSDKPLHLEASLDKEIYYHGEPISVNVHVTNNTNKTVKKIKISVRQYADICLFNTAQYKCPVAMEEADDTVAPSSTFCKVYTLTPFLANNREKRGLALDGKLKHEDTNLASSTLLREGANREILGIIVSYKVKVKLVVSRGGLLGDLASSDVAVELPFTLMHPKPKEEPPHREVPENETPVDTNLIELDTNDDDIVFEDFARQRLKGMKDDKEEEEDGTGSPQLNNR
Experimental: as §1

## CSCC[C@H](NC(=O)[C@H](Cc1ccccc1)NC(=O)CNC(=O)CNC(=O)[C@@H](N)Cc1ccccc1)C(=O)N[C@@H](CCCNC(=N)N)C(=O)N[C@@H](CCCNC(=N)N)C(=O)N[C@@H](CCCCN)C(N)=O [LIH383]
[1]
  reversal of the ACKR3-mediated impairment of dynorphin A potency to activate KOR by pre-treatment: reversed
[2]
  IC50: 4 nM
[3]; LIH383 1 or 3 μM
  effect of pretreatment on dynorphin A-induced depolarization inhibition: significant increase of depolarization inhibition and an apparent improved potency of dynorphin A towards its classical receptors
[3]; concentration as high as 3 μM
  inhibition of neuronal firing: did not lead to significant inhibition of neuronal firing
[4]
  activation or inhibition of MOR: no activation or inhibition
[5]
  agonist activity on mouse ACKR3 compared with human ACKR3: equivalent activity on human and mouse ACKR3
